Holding throughout (type): cell-based, human
The test system of assay [1] is KRAS G12C mutant NCI-H358 cells. The assay can be described thus: Cell proliferation inhibition experiment, 3D spheroid, CellTiter-Glo, NCI-H358. The note with it: NCI-H358 (KRAS G12C mutant) 3D spheroid, 5 days with compound, CellTiter-Glo, read-out: H358 IC50. The source says:
(§1) Raw materials and instruments: NCI-H358 purchased from ATCC; article number: CRL-5807; batch number: 70010825; A549 purchased from ATCC; article number: CCL-185; batch number: 70007820; RPMI1640 purchased from Gibco; article number: 11875-093; batch number: 2152748; F-12K purchased from Gibco; article number: 21127-022; batch number: 2185853; FBS purchased from Gibco; article number: 10099-141; batch number: 2109290CP; PS purchased from Gibco; article number: 15140-122; batch number: 2145451; Trypsin-EDTApurchased from Gibco; article number: 25200-072; batch number: 2085552; CellTiter Glo working solution purchased from Promega; article number: G9683; batch number: 398478; DMSO purchased from VWR AMRESCO; article number: 0231-500ML; batch number: 18C0656168; 384-well spheroid plate purchased from Corning; article number: 3830; batch number: 27519032; white opaque 384-well plate purchased from Corning; article number: 3570; batch number: 26819023; microplate reader purchased from PerkinElmer; model: Envision MLD2105-0020; equipment number 1050369.
(§2) NCI-H358 is a KRAS G12C mutant human non-small cell lung cancer cell line, cultured in 10% FBS RPMI-1640+1% PS culture medium; and A549 is a KRAS G12S mutant human lung adenocarcinoma cell line, cultured in 10% FBS F-12K+1% PS culture medium. Cells at logarithmic growth stage were taken, digested with trypsin-EDTA, then collected and counted. H358 was adjusted to 1.8 E4 cells/mL with 2% FBS RPMI-1640 culture medium, and A549 was adjusted to 8.9 E3 cells/mL with 2% FBS F-12K culture medium; 800 (45 μL) H358 or 400 (45 μL) A549 were inoculated respectively in a 384-well spheroid plate and cultured overnight to establish a 3D cell model. A 3.16-fold gradient concentration stock solution of 1000× compound was prepared with DMSO, and diluted 100-fold to 10× compound stock solution with 2% FBS culture medium. On the second day after cell inoculation, 5 μL of 10× compound stock solution was added to each cell culture well, with a final concentration of 1× and a DMSO content of 0.1%. DMSO was used as experimental control (control), and 2% FBS culture medium was used as blank control (blank). After 5 days of compound cell culture, 25 μL of CellTiter-Glo working solution was added to each well, mixed well at 400 rpm and incubated for 30 minutes. After standing at room temperature for 30 minutes, 40 μL of the mixed solution was transferred to a white opaque 384-well plate, and the luminescence chemiluminescence value was read with a microplate reader. The cell proliferation inhibition rate IR (%)=(RLU control -RLU compound)/(RLU control -RLU blank) x100% was calculated. The gradient dilution concentration of the compound and the corresponding cell proliferation inhibition rate were fitted by Prism 6 four-parameter method, and the IC50 value was calculated. The inhibitory activity of the compounds prepared in the above embodiments of the present disclosure on KRAS G12C mutant NCI-H358 cells was 0.0001 μM to 0.5 μM; the inhibitory activity of some compounds on KRAS G12C mutant NCI-H358 cells was 0.001 μM to 0.1 μM or 0.001 μM to 0.05 μM.

Assay [2] relates to KRAS G12C mutant MIA PaCa-2 cells. In words: Cell proliferation inhibition experiment, 3D spheroid, CellTiter-Glo, MIA PaCa-2. The conditions noted are these: Homo sapiens, MIA PaCa-2, 120 h, 3D cell model in 384-well spheroid plate, 5 days, CellTiter-Glo; read-out: MIA-PaCa2 IC50. From the text:
Raw materials and instruments: MIA PaCa-2 purchased from ATCC; article number: CRL-1420; batch number: 63143594; DMEM purchased from Gibco; article number: 11995-065; batch number: 2186878; FBS purchased from Gibco; article number: 10099-141; batch number: 2109290CP; Horse Serum purchased from Gibco; article number: 16050-122; batch number: 1818976; PS purchased from Gibco; article number: 15140-122; batch number: 2145451; Trypsin-EDTA purchased from Gibco; article number: 25200-072; batch number: 2085552; CellTiter Glo working solution purchased from Promega; article number: G9683; batch number 398478; DMSO purchased from VWR AMRESCO; article number: 0231-500ML; batch number: 18C0656168; 384-well spheroid plate purchased from Corning; article number: 3830; batch number: 27519032; white opaque 384-well plate purchased from Corning; article number: 3570; batch number: 26819023; microplate reader purchased from PerkinElmer; model: Envision MLD2105-0020; equipment number 1050369.
MIA PaCa-2 is a KRAS G12C mutant human pancreatic cancer cell line, cultured in 10% FBS+2.5% Horse Serum DMEM+1% PS culture medium; cells at logarithmic growth stage were taken, digested with trypsin-EDTA, then collected and counted, and 200 MIA PaCa-2 were inoculated in a 384-well spheroid plate, respectively, and cultured overnight to establish a 3D cell model. A 3.16-fold gradient concentration stock solution of 1000× compound was prepared with DMSO, and diluted 100-fold to 10× compound stock solution with culture medium. On the second day after cell inoculation, 10× compound stock solution was added to each cell culture well, with a final concentration of 1× and a DMSO content of 0.1%. DMSO was used as experimental control (control), and culture medium was used as blank control (blank). After 5 days of compound cell culture, 30 μL of CellTiter-Glo working solution was added to each well, mixed well and incubated for 30 minutes. After standing at room temperature for 30 minutes, 40 μL of the mixed solution was transferred to a white opaque 384-well plate, and the luminescence chemiluminescence value was read with a microplate reader. The cell proliferation inhibition rate IR (%)=(RLU control -RLU compound)/(RLU control−RLU blank)×100% was calculated. The gradient dilution concentration of the compound and the corresponding cell proliferation inhibition rate were fitted by XLFit four-parameter method, and the IC50 value was calculated. The inhibitory activity of the compounds prepared in the above embodiments of the present disclosure on KRAS G12C mutant MIA PaCa-2 cells was 0.0001 μM to 0.5 μM; the inhibitory activity of some compounds on KRAS G12C mutant MIA PaCa-2 cells was 0.001 μM to 0.1 μM or 0.001 μM to 0.05 μM.

Assay [3] deals with A549 cells (KRAS G12S mutant). In words: Cell proliferation inhibition experiment, 3D spheroid, CellTiter-Glo, A549. The note with it: A549 (KRAS G12S mutant) 3D spheroid, 5 days with compound, CellTiter-Glo, read-out: A549 IC50.
Text: as §1, §2

Where two headings read alike, the source gives them in different places.

The values below come from patent US20230203060A1 (GENFLEET THERAPEUTICS (SHANGHAI) INC., priority 2020, published 2023).

Take `C=CC(=O)N1CCN2C(=O)c3c(N4C[C@](C)(O)CC4(C)C)nc(-c4c(O)cccc4F)c(F)c3OC[C@H]2C1` (single isomer, unassigned) [Z256b-2]: the IC50 – broadly, the concentration that gives 50% inhibition – in assay [1] (Homo sapiens, NCI-H358, 120 h) stood at 0.0447 µM; in assay [2], 0.105 µM.
For `C=CC(=O)N1CCN2C(=O)c3c(N4CCN5C(=O)CC[C@H]5C4)nc(-c4c(O)cccc4F)c(Cl)c3OC[C@H]2C1` (single isomer, unassigned) [Z317a-1], the IC50 was 0.145 µM in assay [1] (Homo sapiens, NCI-H358, 120 h) and more than 30 µM in assay [3] (Homo sapiens, A549, 120 h).
Turning to `C=CC(=O)N1CCN2C(=O)c3c(N4CCN5C(=O)CC[C@@H]5C4)nc(-c4c(O)cccc4F)c(Cl)c3OC[C@H]2C1` (single isomer, unassigned) [Z317a-2], the IC50 is 0.108 µM in assay [1] (Homo sapiens, NCI-H358, 120 h) and more than 30 µM in assay [3] (Homo sapiens, A549, 120 h).
For `C=CC(=O)N1CCN2C(=O)c3c(Nc4c(C)ccnc4C(C)C)nc(-c4ccccc4F)c(Cl)c3OC[C@H]2C1` [Z8, (R)-8-acryloyl-4-chloro-3-(2-fluorophenyl)-1-((2-isopropyl-4-methylpyridin-3-yl)amino)-6,6a,7,8,9,10-hexahydro-12H-pyrazino[2,1-c]pyrido[3,4-f][1,4]oxazepin-12-one], the IC50 in assay [1] (Homo sapiens, NCI-H358, 120 h) worked out at 0.051 µM; in assay [3] (Homo sapiens, A549, 120 h) it was 5.09 µM; in assay [2] it was 0.232 µM.
`C=CC(=O)N1CCN2C(=O)c3c(OC[C@H]4CCCN4C)nc(-c4c(O)cccc4F)c(Cl)c3OC[C@H]2C1` [Z13, (6aR)-8-acryloyl-4-chloro-3-(2-fluoro-6-hydroxyphenyl)-1-(((R)-1-methylpyrrolidin-2-yl)methoxy)-6,6a,7,8,9,10-hexahydro-12H-pyrazino[2,1-c]pyrido[3,4-f][1,4]oxazepin-12-one]: the IC50 in assay [1] (Homo sapiens, NCI-H358, 120 h) was 0.051 µM; in assay [3] (Homo sapiens, A549, 120 h), more than 5 µM.
Turning to `C=CC(=O)N1CCN2C(=O)c3c(Nc4c(C)c(Cl)nn4C(C)C)nc(-c4c(O)cccc4F)c(Cl)c3OC[C@H]2C1` [Z16, (6aR)-8-acryloyl-4-chloro-1-((3-chloro-1-isopropyl-4-methyl-1H-pyrazol-5-yl)amino)-3-(2-fluoro-6-hydroxyphenyl)-6,6a,7,8,9,10-hexahydro-12H-pyrazino[2,1-c]pyrido[3,4-f][1,4]oxazepin-12-one], the IC50 is 0.037 µM in assay [1] (Homo sapiens, NCI-H358, 120 h) and more than 1 µM in assay [3] (Homo sapiens, A549, 120 h).
As for `C=CC(=O)N1CCN2C(=O)c3c(N4CCS(=O)(=O)CC4)nc(-c4c(O)cccc4F)c(Cl)c3OC[C@H]2C1` [Z26, (6aR)-8-acryloyl-4-chloro-1-(1,1-dioxidothiomorpholino)-3-(2-fluoro-6-hydroxyphenyl)-6,6 a,7,8,9,10-hexahydro-12H-pyrazino[2,1-c]pyrido[3,4-f][1,4]oxazepin-12-one], the IC50 in assay [1] (Homo sapiens, NCI-H358, 120 h) was 0.479 µM; in assay [3] (Homo sapiens, A549, 120 h), more than 30 µM.
Turning to `C=CC(=O)N1CCN2C(=O)c3c(N4CCC(N(C)C)CC4)nc(-c4c(O)cccc4F)c(Cl)c3OC[C@H]2C1` [Z31, (6aR)-8-acryloyl-4-chloro-1-(4-(dimethylamino)piperidin-1-yl)-3-(2-fluoro-6-hydroxyphenyl)-6,6a,7,8,9,10-hexahydro-12H-pyrazino[2,1-c]pyrido[3,4-f][1,4]oxazepin-12-one], the IC50 in assay [1] (Homo sapiens, NCI-H358, 120 h) is 0.176 µM; in assay [3] (Homo sapiens, A549, 120 h) it was more than 30 µM.
Regarding `C=CC(=O)N1CCN2C(=O)c3c(NC(=O)CC(C)(C)C)nc(-c4c(O)cccc4F)c(Cl)c3OC[C@H]2C1` [Z33, N-((6aR)-8-acryloyl-4-chloro-3-(2-fluoro-6-hydroxyphenyl)-12-oxo-6,6a,7,8,9,10-hexahydro-12H-pyrazino[2,1-c]pyrido[3,4-f][1,4]oxazepin-1-yl)-3,3-dimethylbutanamide], the IC50 was 0.113 µM in assay [1] (Homo sapiens, NCI-H358, 120 h) and more than 30 µM in assay [3] (Homo sapiens, A549, 120 h).
For the molecule `C=CC(=O)N1CCN2C(=O)c3c(N[C@H]4[C@@H]5CN(C)C[C@@H]54)nc(-c4c(O)cccc4F)c(Cl)c3OC[C@H]2C1` [Z46, (6aR)-8-acryloyl-4-chloro-3-(2-fluoro-6-hydroxyphenyl)-1-(((1R,5S,6s)-3-methyl-3-azabicyclo[3.1.0]hexan-6-yl)amino)-6,6a,7,8,9,10-hexahydro-12H-pyrazino[2,1-c]pyrido[3,4-f][1,4]oxazepin-12-one], the results for the IC50 in assay [1] and in assay [3] were 0.46 µM and more than 20 µM, respectively.
Regarding `C=CC(=O)N1CCN2C(=O)c3c(-c4cn(C)nc4C)nc(-c4c(O)cccc4F)c(Cl)c3OC[C@H]2C1` [Z74, (6aR)-8-acryloyl-4-chloro-1-(1,3-dimethyl-1H-pyrazol-4-yl)-3-(2-fluoro-6-hydroxyphenyl)-6,6a,7,8,9,10-hexahydro-12H-pyrazino[2,1-c]pyrido[3,4-f][1,4]oxazepin-12-one], the IC50 is 0.324 µM in assay [1] (Homo sapiens, NCI-H358, 120 h) and more than 30 µM in assay [3] (Homo sapiens, A549, 120 h).
Regarding `C=CC(=O)N1CCN2C(=O)c3c(N4C[C@@H](C)O[C@@H](C)C4)nc(-c4c(O)cccc4F)c(Cl)c3OC[C@H]2C1` [Z247, (6aR)-8-acryloyl-1-((2S,6R)-2,6-dimethylmorpholino)-4-chloro-3-(2-fluoro-6-hydroxyphenyl)-6,6a,7,8,9,10-hexahydro-12H-pyrazino[2,1-c]pyrido[3,4-f][1,4]oxazepin-12-one], the IC50 stood at 0.041 µM in assay [1] (Homo sapiens, NCI-H358, 120 h) and 0.047 µM in assay [2].
